Experimental data: the supplement of paper PMC10307832

Tests used:
Experiment in all cases: relative viability (nuclei count vs DMSO), 5 days (fraction); higher = more cells survive
Motesanib + Foretinib = compound: CC1(C)CNc2cc(NC(=O)c3cccnc3NCc3ccncc3)ccc21 [Motesanib] + COc1cc2c(Oc3ccc(NC(=O)C4(C(=O)Nc5ccc(F)cc5)CC4)cc3F)ccnc2cc1OCCCN1CCOCC1 [Foretinib] (partner 0.25 µM)
Procedure, shortened: (§1)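 One day after seeding in 1536-well plates, lung cancer cell lines were dosed by pin tool. Dosing was either single-drug or a fixed anchor-drug dose plus five library-drug doses (not always all listed) in √10 steps. After 5 days, nuclei were stained in one fix-and-stain step and counted on 4× images, and relative viability is the nuclei count of treated wells over that of vehicle wells, given as the median of duplicate plates.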

Motesanib + Pictilisib = compound: CC1(C)CNc2cc(NC(=O)c3cccnc3NCc3ccncc3)ccc21 [Motesanib] + CS(=O)(=O)N1CCN(Cc2cc3nc(-c4cccc5[nH]ncc45)nc(N4CCOCC4)c3s2)CC1 [Pictilisib] (partner 1 µM)
Procedure, shortened: as §1

[1] = compound: C[C@@]1(C(=O)Nc2ccc(F)nc2)CCCN1c1nc(Nc2cc(C3CC3)n[nH]2)c2cccn2n1 + Cc1cc(Nc2cc(N3CCN(C)CC3)nc(Sc3ccc(NC(=O)C4CC4)cc3)n2)n[nH]1 [Tozasertib] (partner 0.1 µM)
Procedure, shortened: as §1

[2] = compound: C[C@@]1(C(=O)Nc2ccc(F)nc2)CCCN1c1nc(Nc2cc(C3CC3)n[nH]2)c2cccn2n1 + O=C(c1cc(Cc2n[nH]c(=O)c3ccccc23)ccc1F)N1CCN(C(=O)C2CC2)CC1 [Olaparib] (partner 8 µM)
Procedure, shortened: as §1

Cell Line | relative viability (Motesanib + Foretinib; first compound 0.01 µM) | relative viability (Motesanib + Foretinib; first compound 0.03162 µM) | relative viability (Motesanib + Foretinib; first compound 0.1 µM) | relative viability (Motesanib + Foretinib; first compound 0.3162 µM) | relative viability (Motesanib + Foretinib; first compound 1 µM) | relative viability (Motesanib + Pictilisib; first compound 0.01 µM) | relative viability (Motesanib + Pictilisib; first compound 0.03162 µM) | relative viability (Motesanib + Pictilisib; first compound 0.1 µM) | relative viability (Motesanib + Pictilisib; first compound 0.3162 µM) | relative viability (Motesanib + Pictilisib; first compound 1 µM) | relative viability ([1]; first compound 0.04 µM) | relative viability ([1]; first compound 0.1265 µM) | relative viability ([1]; first compound 0.4 µM) | relative viability ([1]; first compound 1.265 µM) | relative viability ([2]; first compound 0.04 µM) | relative viability ([2]; first compound 0.1265 µM) | relative viability ([2]; first compound 0.4 µM) | relative viability ([2]; first compound 1.265 µM)
NCI-H2087 | 1.02 | 0.937 | 1.2 | 1.23 | 1.11 | 0.695 | 0.794 | 0.705 | 0.988 | 0.843 | 0.231 | 0.28 | 0.159 | 0.209 | 0.593 | 0.483 | 0.369 | 0.482
BEN | 0.627 | 0.55 | 0.739 | 0.572 | 0.992 | 0.517 | 0.618 | 0.624 | 0.579 | 0.715 | 0.551 | 0.529 | 0.517 | 0.501 | 1.09 | 1.14 | 0.97 | 0.988
LCLC-103H | 0.809 | 0.707 | 0.844 | 0.867 | 0.937 |  | 0.613 | 0.542 | 0.639 | 0.709 | 0.474 | 0.472 | 0.394 | 0.473 | 0.716 | 0.655 | 0.518 | 0.762
EKVX | 0.744 | 0.902 | 0.743 | 0.82 | 0.921 | 0.483 | 0.445 | 0.462 | 0.472 | 0.506 | 0.363 | 0.349 | 0.259 | 0.28 | 0.874 | 0.644 | 0.635 | 0.735
LXF-289 | 1 | 0.952 | 0.924 | 1.03 | 0.987 | 0.776 | 0.811 | 0.774 | 0.806 | 0.835 | 0.167 | 0.121 | 0.14 | 0.14 | 1.07 | 1.1 | 0.933 | 1.07
ABC-1 | 1.1 | 1.06 | 1.04 | 1.05 | 1.2 | 0.81 | 0.962 | 0.715 | 0.707 | 0.76 | 0.2 | 0.128 | 0.184 | 0.165 | 0.664 | 0.584 | 0.774 | 0.668
NCI-H650 | 1.05 |  | 1.02 | 0.974 | 1.02 | 0.832 | 0.757 | 0.875 | 0.992 | 0.854 | 0.714 | 0.479 | 0.523 | 0.398 | 0.372 | 0.326 | 0.281 | 0.237
NCI-H1650 | 1.25 | 0.816 | 1.16 | 1.27 | 1.23 | 0.592 |  | 0.516 | 0.495 | 0.517 | 0.345 | 0.29 | 0.258 | 0.255 | 0.692 | 0.846 | 0.678 | 0.729
NCI-H2085 | 0.896 | 1.22 | 0.973 | 1.07 | 1.03 | 0.377 | 0.447 | 0.405 | 0.509 | 0.468 | 0.892 | 0.795 | 0.664 | 0.92 | 0.827 | 0.748 | 0.711 | 0.819
NCI-H1793 | 0.815 | 0.566 | 0.721 | 0.591 | 0.805 | 0.364 | 0.282 | 0.301 | 0.34 | 0.469 | 0.631 | 0.283 |  | 0.789 | 0.751 | 0.668 | 0.475 | 0.772
LC-2-ad | 0.875 | 0.988 | 0.893 | 0.984 | 1.02 | 0.449 | 0.593 | 0.479 | 0.568 | 0.421 | 0.403 | 0.393 | 0.288 | 0.296 | 0.676 | 0.664 | 0.581 | 0.492
COR-L 105 | 1.2 | 1.03 | 1.16 | 0.821 | 1.42 | 0.489 | 0.439 | 0.395 | 0.49 | 0.385 | 0.373 | 0.332 | 0.426 | 0.3 | 0.74 | 0.604 | 0.571 | 0.595
NCI-H1355 | 1.02 | 0.96 | 1.02 | 1.01 | 1.03 | 0.47 | 0.475 | 0.406 | 0.502 | 0.485 | 0.551 | 0.438 | 0.323 | 0.526 | 0.661 | 0.59 | 0.561 | 0.572
H3255 | 0.837 | 0.762 | 0.889 | 0.791 | 0.976 | 0.473 | 0.487 | 0.491 | 0.488 | 0.427 | 0.695 | 0.781 | 0.656 | 0.582 | 0.638 | 0.643 | 0.523 | 0.548
NCI-H1993 | 0.861 | 0.829 | 0.812 | 0.777 | 0.881 | 0.676 | 0.917 | 0.899 | 0.767 | 0.805 | 0.556 | 0.502 | 0.55 | 0.549 | 0.926 | 0.88 | 0.492 | 0.662
NCI-H1734 | 0.932 | 0.883 |  | 0.879 | 0.968 | 0.446 | 0.496 | 0.461 | 0.479 | 0.48 | 0.234 | 0.246 | 0.26 | 0.242 | 0.506 | 0.405 | 0.385 | 0.436
HOP-62 | 1.17 | 1.1 | 1.02 | 1.1 | 1.21 | 0.651 | 0.843 | 0.507 | 1.08 | 1.01 | 0.371 | 0.393 | 0.298 | 0.337 | 0.39 | 0.172 | 0.386 | 0.404
LOU-NH91 | 0.97 | 0.929 | 0.91 | 0.948 | 1.02 | 0.466 | 0.523 | 0.563 | 0.547 | 0.568 | 0.641 | 0.635 | 0.56 | 0.447 | 0.932 | 0.945 | 0.828 | 0.908
ChaGo-K-1 | 0.933 | 0.894 | 0.861 | 1.1 | 1.01 |  | 0.535 | 0.532 | 0.638 | 0.757 | 0.209 | 0.197 | 0.201 | 0.207 | 0.414 | 0.398 | 0.402 | 0.422
NCI-H2228 | 0.995 | 0.937 | 0.902 | 1.02 | 0.796 | 0.442 | 0.356 | 0.387 | 0.365 | 0.535 | 0.258 | 0.248 | 0.235 | 0.178 | 0.767 | 0.503 | 0.426 | 0.32
PC-14 | 0.922 | 0.997 | 1 | 1.01 | 1.06 | 0.729 | 0.695 | 0.84 | 0.72 | 0.858 | 0.572 | 0.587 | 0.515 | 0.464 | 0.368 | 0.335 | 0.319 | 0.222
NCI-H1437 | 1.28 | 1.24 | 1.25 | 1.3 | 1.33 | 0.441 | 0.441 | 0.467 | 0.502 | 0.406 | 0.382 | 0.309 | 0.221 | 0.238 | 0.666 | 0.631 | 0.576 | 0.59
NCI-H460 | 0.942 | 0.966 | 1 | 1.01 | 1.04 | 0.356 | 0.424 | 0.302 | 0.364 | 0.493 | 0.525 | 0.487 | 0.26 | 0.136 | 0.495 | 0.334 | 0.346 | 0.23
NCI-H1666 | 0.979 | 0.956 | 0.947 | 1.03 | 1.01 | 0.466 | 0.5 | 0.416 | 0.463 | 0.49 | 0.623 | 0.558 | 0.465 | 0.415 | 0.707 | 0.73 | 0.713 | 0.724
NCI-H1651 | 0.824 | 0.877 | 0.845 | 0.82 | 0.982 | 0.607 | 0.538 | 0.516 | 0.562 | 0.51 | 0.639 | 0.633 | 0.449 | 0.537 | 0.2 | 0.183 | 0.196 | 0.201
NCI-H1755 | 0.904 | 0.914 | 0.925 | 1.01 | 0.842 | 0.395 | 0.423 | 0.442 | 0.454 | 0.402 | 0.558 | 0.528 | 0.472 | 0.545 | 0.93 | 0.73 | 0.759 | 0.851
NCI-H661 | 0.998 | 1.1 | 0.991 | 1.13 | 0.9 | 0.327 | 0.35 | 0.348 | 0.379 | 0.43 | 0.37 | 0.345 | 0.369 | 0.338 | 0.742 | 0.849 | 0.778 | 0.634
HARA | 0.94 | 0.801 | 0.906 | 0.915 | 0.881 | 0.372 | 0.366 | 0.405 | 0.389 | 0.461 | 0.367 | 0.103 | 0.0758 | 0.79 | 0.81 | 0.74 | 0.59 | 0.656
NCI-H596 | 0.817 | 0.818 | 0.98 | 0.656 | 0.806 | 0.391 | 0.427 | 0.362 | 0.384 | 0.406 | 0.883 | 0.748 | 0.683 | 0.71 | 0.714 | 0.697 | 0.608 | 0.571
NCI-H23 | 0.952 | 0.718 | 0.892 | 1.38 | 0.933 | 0.415 | 0.41 |  | 0.562 | 0.53 | 0.382 | 0.269 | 0.316 | 0.516 | 0.252 | 0.227 | 0.225 | 0.21
